{"source": "patent US5112754A", "about": "“Tissue plasminogen-activating factor and nonoclonal antibody” (Snow Brand Milk Products Co., Ltd., priority 1985, dated 1992)", "assay_type_in_all_cases": "biochemical", "key": {"[1]": {"biological_target": "Urokinase (low-molecular type) (Homo sapiens, UniProt P00749)", "assay": "Vmax for synthetic substrate S-2288, urokinase low-molecular type", "conditions": "for comparison"}, "[2]": {"biological_target": "Urokinase (high-molecular type) (Homo sapiens, UniProt P00749)", "assay": "Km for synthetic substrate S-2288, urokinase high-molecular type", "conditions": "for comparison"}, "[3]": {"biological_target": "T1, New type of plasminogen activator (non-urokinase tissue type, IMR-90 t-PA) produced by fibroblasts derived from human fetal lung tissue (Homo sapiens, UniProt P00750)", "T1 construct": "Normal fibroblasts of strain IMR-90 (ATCC, CCL-186) derived from human fetal lung tissue were cultured in a serum-free medium; endogenous in cells; host or cells: IMR-90 (ATCC CCL-186) normal human fetal lung fibroblasts; protein purified from the serum-free culture medium", "T1 sequence (P00750 36-562)": "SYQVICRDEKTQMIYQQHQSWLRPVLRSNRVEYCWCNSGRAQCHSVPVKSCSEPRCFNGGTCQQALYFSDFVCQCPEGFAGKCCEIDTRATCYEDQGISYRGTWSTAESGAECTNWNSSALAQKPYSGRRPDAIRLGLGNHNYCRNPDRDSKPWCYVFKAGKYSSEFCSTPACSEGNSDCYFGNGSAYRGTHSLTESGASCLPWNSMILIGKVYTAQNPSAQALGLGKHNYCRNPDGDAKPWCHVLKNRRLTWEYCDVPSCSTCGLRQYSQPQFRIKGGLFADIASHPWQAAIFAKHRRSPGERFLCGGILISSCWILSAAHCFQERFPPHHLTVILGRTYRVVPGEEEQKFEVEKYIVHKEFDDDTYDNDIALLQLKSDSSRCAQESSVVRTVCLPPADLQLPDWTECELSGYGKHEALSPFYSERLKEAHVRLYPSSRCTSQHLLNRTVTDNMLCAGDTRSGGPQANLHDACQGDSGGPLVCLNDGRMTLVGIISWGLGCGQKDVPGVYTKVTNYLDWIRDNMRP", "assay": "Km and Vmax for synthetic substrate S-2288, new type of plasminogen activator"}}, "note": "Where “and” joins values, the source holds several entries; their conditions need not be identical. Identical values can stand only once. Where a SMILES comes first, the peptide text is derived from it. [ ]: non-standard residue; d: D form. The star is where a group is joined. pNA = O=[N+]([O-])c1ccc(N*)cc1", "data": [{"smiles": "CC[C@@H](C)[C@@H](N)C(=O)N1CCC[C@H]1C(=O)N[C@@H](CCCNC(=N)N)C(=O)Nc1ccc([N+](=O)[O-])cc1", "note": "[S-2288, H.D.Ile-Pro-Arg-pNa.2HCl] (H-[dI]-Pro-Arg-pNA)", "values": [{"measurement": "Vmax for substrate S-2288", "setting": "[1]", "value": "5 × 10^-10 mol/min-unit"}, {"measurement": "Km", "setting": "[2]", "value": 500, "unit": "µM"}, {"measurement": "Km", "setting": "[3]; purified new type of plasminogen activator", "value": "1160 µM and ~1160 µM"}, {"measurement": "Vmax for substrate S-2288", "setting": "[3]; purified new type of plasminogen activator, Table 1", "value": "1.7 × 10^-8 mol/min-unit"}, {"measurement": "Vmax for substrate S-2288", "setting": "[3]; purified plasminogen activator, unit as printed in running text b36", "value": "about 1.7×10^-8 mol/liter"}]}]}
